# Source: PMC11277476, “Synthesis and Biological Evaluation of Novel 2-Aroyl Benzofuran-Based Hydroxamic Acids as Antimicrotubule Agents” (International Journal of Molecular Sciences, 2024)
# Like-named read-outs stand apart in the source and are kept apart here.
# Assays:
# MDA-MB-231 cells = assay: In vitro growth inhibition (resazurin, 72 h), MDA-MB-231; type: cell-based; conditions: Homo sapiens, mean ± SE
# [1] = tested on: tubulin (colchicine site); assay: Inhibition of [3H]colchicine binding to tubulin; design: species or system bovine; conditions: tubulin 0.5 µM, [3H]colchicine 5 µM, tested compound 5 µM
# Method: (§1) Bovine brain tubulin was purified as described previously. To evaluate the effects of the compounds on tubulin assembly in vitro [77], varying concentrations were preincubated with 10 μM tubulin in 0.8 M monosodium glutamate (pH 6.6) at 30 °C, and the reaction mixtures were then cooled to 0 °C. After addition of GTP, the mixtures were transferred to 0 °C cuvettes in Beckman Coulter (Brea, CA, USA) DU-7400/DU-7500 recording spectrophotometers equipped with electronic temperature controllers and were warmed to 30 °C, and the assembly of tubulin was observed turbidimetrically. […] Inhibition of colchicine binding to tubulin was measured as described before, except that the reaction mixtures contained 0.5 μM tubulin and 5 μM each of [^3H]colchicine and test compound. Only one DEAE-cellulose filter was used per sample, and filtration was via gravity.
# human recombinant HDAC6 = molecular target: T1, human recombinant HDAC6 (Homo sapiens, UniProt Q9UBN7); assay: HDAC isoform inhibition, fluorogenic substrate, HDAC6; type: biochemical; conditions: mean ± SE; for IC50: read-out: IC50 (µM) hHDAC6
# T1 construct: purchased BPS Bioscience 50056
# T1 sequence (Q9UBN7 1-1215): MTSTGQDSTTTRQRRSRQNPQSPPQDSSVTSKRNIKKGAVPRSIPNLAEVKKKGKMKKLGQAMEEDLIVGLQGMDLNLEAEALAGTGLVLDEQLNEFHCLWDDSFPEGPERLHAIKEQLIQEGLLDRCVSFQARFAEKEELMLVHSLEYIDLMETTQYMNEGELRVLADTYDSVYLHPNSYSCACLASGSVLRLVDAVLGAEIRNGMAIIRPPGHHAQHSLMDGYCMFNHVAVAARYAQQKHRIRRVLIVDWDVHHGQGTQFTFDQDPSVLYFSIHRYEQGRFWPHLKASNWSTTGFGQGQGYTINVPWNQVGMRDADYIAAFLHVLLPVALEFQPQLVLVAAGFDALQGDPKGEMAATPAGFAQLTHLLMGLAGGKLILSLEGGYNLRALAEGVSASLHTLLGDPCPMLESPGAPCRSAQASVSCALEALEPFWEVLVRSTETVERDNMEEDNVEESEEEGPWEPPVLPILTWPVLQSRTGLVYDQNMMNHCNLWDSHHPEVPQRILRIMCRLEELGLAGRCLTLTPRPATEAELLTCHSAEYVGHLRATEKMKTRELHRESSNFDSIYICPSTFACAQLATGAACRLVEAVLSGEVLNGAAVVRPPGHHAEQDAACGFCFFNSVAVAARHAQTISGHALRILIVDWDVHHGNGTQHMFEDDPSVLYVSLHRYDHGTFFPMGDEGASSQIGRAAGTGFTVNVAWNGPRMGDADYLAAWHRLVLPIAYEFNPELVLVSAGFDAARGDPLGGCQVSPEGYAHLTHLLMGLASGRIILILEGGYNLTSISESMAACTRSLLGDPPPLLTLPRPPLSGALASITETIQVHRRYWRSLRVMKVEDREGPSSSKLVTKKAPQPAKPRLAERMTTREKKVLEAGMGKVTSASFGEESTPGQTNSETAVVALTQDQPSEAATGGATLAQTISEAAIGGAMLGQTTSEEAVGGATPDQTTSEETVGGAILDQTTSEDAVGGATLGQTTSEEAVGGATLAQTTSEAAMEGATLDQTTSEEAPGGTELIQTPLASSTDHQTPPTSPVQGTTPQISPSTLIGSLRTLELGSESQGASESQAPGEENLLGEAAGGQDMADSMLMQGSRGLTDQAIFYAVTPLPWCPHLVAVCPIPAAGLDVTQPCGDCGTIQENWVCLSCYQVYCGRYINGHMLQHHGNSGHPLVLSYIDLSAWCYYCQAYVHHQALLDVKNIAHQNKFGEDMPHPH
# Method: Further experiments were also carried out to evaluate the inhibitory activities of test compounds on selected HDAC isoforms. […] Following an incubation of 15 min at RT, fluorescence was measured in an EnSight multimodal plate reader (PerkinElmer, Boston, MA, USA) with an excitation wavelength of 360 nm and an emission wavelength of 450 nm.
# HeLa cells = assay: In vitro growth inhibition (resazurin, 72 h), HeLa; type: cell-based; conditions: Homo sapiens, concentration inhibiting tumor cell proliferation by 50%, mean ± SE
# MCF-7 cells = assay: In vitro growth inhibition (resazurin, 72 h), MCF-7; type: cell-based; conditions: Homo sapiens, MCF7, mean ± SE
# bovine brain tubulin = assay: Inhibition of tubulin polymerization (turbidimetric); type: biochemical; conditions: tubulin at 10 μM; 20 min incubation at 30 °C; read-out: Tubulin Assembly IC50 ± SD
# Method: as §1
# HT-29 cells = assay: In vitro growth inhibition (resazurin, 72 h), HT-29; type: cell-based; conditions: Homo sapiens, mean ± SE
# A549 cells = assay: In vitro growth inhibition (resazurin, 72 h), A549; type: cell-based; conditions: Homo sapiens, mean ± SE
# [2] = tested on: panel of five human cancer cell lines (HeLa, MDA-MB-231, A549, HT-29, MCF-7); assay: In vitro growth inhibition, range over the panel of five cancer cell lines
# Method: All the cell lines were purchased from the American Type Culture Collection (ATCC, Manassas, VA, USA). Drug stock solutions were prepared for each compound by dissolving them in DMSO at 10 mM.
# Cancer cells were seeded in tissue treated, flat bottom, 384-well plates (Corning, Corning, NY, USA) according to their optimal density, in 27 μL of complete medium per well, using a Microlab STAR 96-CORE liquid handling system (Hamilton Bonaduz, Bonaduz, Switzerland) as described previously [75]. Each compound was tested in a 6-points 2-fold dose–response curve, and each dose was tested in duplicate within each plate, in three independent experiments. The final concentration of DMSO in the wells never exceeded 0.1%, which was the maximum concentration.
# Only plates with acceptable Z-prime quality metrics (Z′ > 0.6) were further analyzed for the drug screening. Raw data were normalized according to the following equation: cell viability (%) = (x − POS)/(NEG − POS) × 100, where x is the relative fluorescence units (RFU) collected from each single well, NEG is the mean of intraplate negative controls (DMSO, corresponding to 100% cell viability), and POS is the mean of intraplate positive controls (Bortezomib 1 μΜ, equal to 0% cell viability).
# [3] = read-out: IC50 values, range or bound over the cancer cell line panel
SMILES,IC50 (MDA-MB-231 cells) [nM],Colchicine Binding % Inhibition ± SD [1] [%],IC50 (human recombinant HDAC6) [µM],IC50 (HeLa cells) [nM],IC50 (MCF-7 cells) [nM],IC50 (bovine brain tubulin) [µM],melting point [°C],IC50 (HT-29 cells) [nM],IC50 (A549 cells) [nM],"IC50 [2, 3] [µM]","IC50 ([2]; read-out: IC50 values, range over the cancer cell line panel) [µM]",IC50 (µM) hHDAC6 (human recombinant HDAC6)
"COc1cc2oc(C(=O)c3ccc(OC)c(OC)c3)c(C)c2cc1/C=C/C(=O)NO [Compound 6b, (E)-3-(2-(3,4-Dimethoxybenzoyl)-6-methoxy-3-methylbenzofuran-5-yl)-N-hydroxyacrylamide]",72.6 ± 5.03,41 ± 5,> 30,36.8 ± 4.13,40 ± 4,1.1 ± 0.2,198 to 199,401 ± 2.03,187 ± 1.02,,,
"COc1ccc(C(=O)c2oc3cc(OC)c(/C=C/C(=O)NO)cc3c2C)cc1 [Compound 6d, (E)-N-Hydroxy-3-(6-methoxy-2-(4-methoxybenzoyl)-3-methylbenzofuran-5-yl)acrylamide]",322 ± 12.4,27 ± 4,12.6 ± 0.8,47.6 ± 1.22,59 ± 10,1.7 ± 0.1,168 to 170,881 ± 8.23,222 ± 1.09,,,
"COc1cc(C(=O)c2oc3ccc(/C=C/C(=O)NO)cc3c2C)cc(OC)c1OC [Compound 6h, (E)-N-Hydroxy-3-(3-methyl-2-(3,4,5-trimethoxybenzoyl)benzofuran-5-yl)acrylamide]",> 10000,,,> 10000,> 10000,,188 to 190,> 10000,> 10000,> 10,,
"C#Cc1cc2c(C)c(C(=O)c3cc(OC)c(OC)c(OC)c3)oc2cc1OC [Compound 8, (5-ethynyl-6-methoxy-3-methyl-benzofuran-2-yl)-(3,4,5-trimethoxyphenyl)methanone]",81.2 ± 6,,,18.2 ± 0.02,,,186 to 188,207 ± 14,122 ± 8.6,,0.018 to 0.207,
"COc1cc2oc(C(=O)c3ccc(OC)c(OC)c3)c(C)c2cc1C#CC(=O)NO [Compound 11b, 3-[2-(3,4-Dimethoxybenzoyl)-6-methoxy-3-methyl-1-benzofuran-5-yl]-N-hydroxyprop-2-ynamide]",377 ± 1.09,30 ± 2,,69.4 ± 1.45,> 10000,2.7 ± 0.07,276 to 277,2.16 ± 0.86,972 ± 7.47,,,
"COc1cc(OC)cc(C(=O)c2oc3cc(OC)c(C#CC(=O)NO)cc3c2C)c1 [Compound 11c, 3-[2-(3,5-Dimethoxybenzoyl)-6-methoxy-3-methyl-1-benzofuran-5-yl]-N-hydroxyprop-2-ynamide]",43.9 ± 3,82 ± 1,13.8 ± 0.8,7.3 ± 0.03,20 ± 0.7,0.56 ± 0.06,248 to 250,96.5 ± 2.45,45.3 ± 2.93,,,
"COc1ccc(C(=O)c2oc3cc(OC)c(C#CC(=O)NO)cc3c2C)cc1 [Compound 11d, N-Hydroxy-3-[6-methoxy-2-(4-methoxybenzoyl)-3-methyl-1-benzofuran-5-yl]prop-2-ynamide]",4.09 ± 0.06,,,1.43 ± 0.67,,,222 to 224,> 10000,5.07 ± 0.22,1.5 to 10,,
"COc1cccc(C(=O)c2oc3cc(OC)c(C#CC(=O)NO)cc3c2C)c1 [Compound 11e, N-Hydroxy-3-[6-methoxy-2-(3-methoxybenzoyl)-3-methyl-1-benzofuran-5-yl]prop-2-ynamide]",96.7 ± 1.65,81 ± 3,> 30,8.4 ± 0.98,15,0.42 ± 0.03,,4.89 ± 0.03,94.4 ± 3.03,,,does not show any activity at the highest concentration tested
"COc1cc2oc(C(=O)c3ccccc3OC)c(C)c2cc1C#CC(=O)NO [Compound 11f, N-Hydroxy-3-[6-methoxy-2-(2-methoxybenzoyl)-3-methyl-1-benzofuran-5-yl]prop-2-ynamide]",345 ± 4.03,20 ± 2,,60.5 ± 2.26,240 ± 10,5.4 ± 0.1,243 to 245,4568 ± 21.4,276 ± 6.74,,,
"COc1cc2oc(C(=O)c3ccccc3)c(C)c2cc1C#CC(=O)NO [Compound 11g, 3-(2-Benzoyl-6-methoxy-3-methyl-benzofuran-5-yl)prop-2yne hydroxamic acid]",101 ± 0.03,,,15.2 ± 0.02,,,205 to 206,1.58 ± 0.06,206 ± 2.92,,,
"COc1cc(C(=O)c2oc3ccc(C#CC(=O)NO)cc3c2C)cc(OC)c1OC [Compound 11h, 3-[3-Methyl-2-(3,4,5-trimethoxybenzoyl)benzofuran-5-yl]prop-2-yne hydroxamic acid]",> 10000,,,> 10000,> 10000,,254 to 256,> 10000,> 10000,> 10,,
